Results reported in patent publication US20060241067A1, “Methods For inhibiting angiogenesis, cell migration, cell adhesion, and cell survival” (priority 2002, published 2006).

Tests used:
[1] = tested on: chick chorioallantoic membrane (CAM); assay: Chick chorioallantoic membrane (CAM) angiogenesis assay; assay type: in vivo, chicken; details: bFGF stimulated CAMs
[2] = tested on: Human umbilical vein endothelial cells (HUVEC); assay: Endothelial cell migration assay (transwell) on ECM substrates; assay type: cell-based
Protocol: Human umbilical vein endothelial cells (HUVEC) were grown in Endothelial Growth Medium (containing 2% fetal bovine serum, bFGF and VEGF) (Clonetics, San Diego, Calif.). To render HUVECs quiescent for Rac and/or Rho assays, monolayers of endothelial cells were incubated for 18 hrs in Endothelial Basal Medium supplemented with 0.1% serum (Clonetics). Cell migration and adhesion assays on ECM substrates were performed as previously described in Kim et al. (S. Kim et al., Amer. J. Biol. Chem., 275:33920-33928 (2000); and S. Kim et al., Amer. J. Path., 156:1345-1362 (2000)).
Migration assays were performed essentially as described (Kim, et. al., 2000). […] HUVECS (25,000) were added to the upper chamber of inserts in migration buffer (Hepes buffered M199 medium containing 1% BSA, 2 mM MgCl2, 2 mM CaCl2 and 0.2 mM MnCl2) containing 25 μg/ml of various antibodies. In some experiments, 250 μM dibutyryl cAMP was placed in the upper and lower chambers of the transwell. Cells were allowed to migrate from the upper to the lower chamber for four hours at 37° C. The number of cells which had migrated were counted in three representative high power (200×) fields per insert. The data are presented as number of cells migrating+/−standard error of the mean. Migration assays were similarly performed on transfected cells. In this case, migrated transfected cells were identified by fluorescent microscopy and counted.

[3] = tested on: bFGF-stimulated angiogenesis in the mouse; assay: Murine matrigel angiogenesis assay; assay type: in vivo, nude mice; details: bFGF matrigel with peptide, subcutaneous

AVSEHQLLHS/D [PTHrP 1-10]
effectiveness at inhibiting angiogenesis relative to PTHrP 1-34 ([1]; 1 μM): slightly less effective
angiogenesis (blood vessel branch points, vessel density) ([1]; 1 μM peptide): effective in inhibiting angiogenesis in the CAM assay
endothelial cell migration on vitronectin ([2]; 1 μM peptide): similarly effective in inhibiting cell migration on vitronectin
maximum inhibition of cell migration ([2]; at a concentration of 10 μM): 50%
angiogenesis in matrigel plugs (fluorescence intensity of lectin) [3]: effective in inhibiting angiogenesis in a mouse model of angiogenesis
